Results: patent US20240239781A1, “1H-PYRAZOLE DERIVATIVES AS SIGMA LIGANDS” (ACONDICIONAMIENTO TARRASENSE, priority 2021, published 2024)

Assays:
human σ1 receptor = target: T1, human σ1 receptor (Homo sapiens, UniProt Q99720); experiment: Human σ1 receptor radioligand assay ([3H](+)-pentazocine, transfected HEK-293 membranes); conditions: class scale, read-out: Binding σ-1 Ki
T1 construct: expressed in transfected cells; host or cells: HEK-293
Method in brief: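 Membranes (7 μg) from transfected HEK-293 cells were incubated with 5 nM [3H](+)-pentazocine in 50 mM Tris-HCl, pH 8, for 120 minutes at 37° C, with 10 μM haloperidol defining non-specific binding. Bound radioactivity was filtered and counted by scintillation. Results are % inhibition at 1 or 10 μM or Ki from five concentrations.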

human σ2/TMEM97 receptor = target: T2, human σ2/TMEM97 receptor (Homo sapiens, UniProt Q5BJF2); experiment: Binding assay to human σ2/TMEM97 receptor ([3H]-DTG, transfected HEK-293 membranes); conditions: class scale, read-out: Binding σ-2 Ki
T2 construct: expressed in transfected cells; host or cells: HEK-293
T2 sequence (Q5BJF2 whole entry): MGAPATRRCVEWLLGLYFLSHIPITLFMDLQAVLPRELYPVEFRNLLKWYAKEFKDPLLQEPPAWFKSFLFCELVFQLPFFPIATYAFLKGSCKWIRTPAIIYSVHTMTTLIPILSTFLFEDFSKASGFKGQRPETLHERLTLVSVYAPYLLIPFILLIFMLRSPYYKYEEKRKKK
Method in brief: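 Membranes (15 μg) from transfected HEK-293 incubated 120 min at 25 °C with 10 nM [3H]-DTG in 50 mM Tris-HCl pH 8.0; nonspecific binding with 10 μM haloperidol. Filtration and scintillation counting; % inhibition at 1 or 10 μM, or Ki from five concentrations.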

T1 sequence (Q99720 whole entry): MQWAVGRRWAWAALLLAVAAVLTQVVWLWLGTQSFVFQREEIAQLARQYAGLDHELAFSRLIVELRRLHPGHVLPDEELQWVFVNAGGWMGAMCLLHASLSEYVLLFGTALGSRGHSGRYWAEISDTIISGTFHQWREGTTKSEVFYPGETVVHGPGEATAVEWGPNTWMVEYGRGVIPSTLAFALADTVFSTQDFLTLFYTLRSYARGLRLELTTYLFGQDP

SMILES | Ki (human σ1 receptor) | Ki (human σ2/TMEM97 receptor)
CCn1nc(-c2cc(C)on2)c(C(=O)N2CCCC3(CCN(CCC(C)(C)C)CC3)C2)c1Cl [Example 150, (5-Chloro-1-ethyl-3-(5-methylisoxazol-3-yl)-1H-pyrazol-4-yl)(9-(3,3-dimethylbutyl)-2,9-diazaspiro[5.5]undecan-2-yl)methanone] | 100 to 500 nM | < 100 nM
CCn1nc(-c2cccc(C)n2)c(C(=O)NC2CCC3(CC2)CCN(CCC(C)(C)C)CC3)c1Cl [Example 151, 5-Chloro-N-(3-(3,3-dimethylbutyl)-3-azaspiro[5.5]undecan-9-yl)-1-ethyl-3-(6-methylpyridin-2-yl)-1H-pyrazole-4-carboxamide] | < 100 nM | < 100 nM
CCn1nc(-c2cc(C(C)C)on2)c(C(=O)N2CCCC3(CCN(CCC(C)(C)C)CC3)C2)c1Cl [Example 152, (5-Chloro-1-ethyl-3-(5-isopropylisoxazol-3-yl)-1H-pyrazol-4-yl)(9-(3,3-dimethylbutyl)-2,9-diazaspiro[5.5]undecan-2-yl)methanone] | 100 to 500 nM | < 100 nM
Cc1cc(-c2nn(C)c(Cl)c2C(=O)NC2CC3(CCN(Cc4ccccc4)CC3)C2)no1 [Example 153, N-(7-Benzyl-7-azaspiro[3.5]nonan-2-yl)-5-chloro-1-methyl-3-(5-methylisoxazol-3-yl)-1H-pyrazole-4-carboxamide] | 100 to 500 nM | 100 to 500 nM
Cc1cc(-c2nn(C)c(Cl)c2C(=O)NC2CC3(CCN(CC(C)(C)C)CC3)C2)no1 [Example 154, 5-Chloro-1-methyl-3-(5-methylisoxazol-3-yl)-N-(7-neopentyl-7-azaspiro[3.5]nonan-2-yl)-1H-pyrazole-4-carboxamide] | 100 to 500 nM | 100 to 500 nM
Cn1nc(-c2cccc(C(F)(F)F)n2)c(C(=O)N2CCCC3(CCN(CCC(C)(C)C)CC3)C2)c1Cl [Example 155, (5-Chloro-1-methyl-3-(6-(trifluoromethyl)pyridin-2-yl)-1H-pyrazol-4-yl)(9-(3,3-dimethylbutyl)-2,9-diazaspiro[5.5]undecan-2-yl)methanone] | 100 to 500 nM | < 100 nM
Cc1cc(-c2nn(C)c(Cl)c2C(=O)N2CCCC3(CCN(Cc4ccccc4)CC3)C2)no1 [Example 156, (9-Benzyl-2,9-diazaspiro[5.5]undecan-2-yl)(5-chloro-1-methyl-3-(5-methylisoxazol-3-yl)-1H-pyrazol-4-yl)methanone] | 100 to 500 nM | < 100 nM
Cc1cc(-c2nn(C)c(Cl)c2C(=O)N2CCCC3(CCN(CC(C)(C)C)CC3)C2)no1 [Example 157, (5-Chloro-1-methyl-3-(5-methylisoxazol-3-yl)-1H-pyrazol-4-yl)(9-neopentyl-2,9-diazaspiro[5.5]undecan-2-yl)methanone] | > 1000 nM | < 100 nM
CCn1nc(-c2cc(C)on2)c(C(=O)NCCC2CCN(CCC(C)(C)C)CC2)c1Cl [Example 158, 5-Chloro-N-(2-(1-(3,3-dimethylbutyl)piperidin-4-yl)ethyl)-1-ethyl-3-(5-methylisoxazol-3-yl)-1H-pyrazole-4-carboxamide] | 100 to 500 nM | < 100 nM
CCn1nc(-c2cc(C)on2)c(C(=O)NC2CCN(CCC(C)(C)C)CC2)c1Cl [Example 159, 5-Chloro-N-(1-(3,3-dimethylbutyl)piperidin-4-yl)-1-ethyl-3-(5-methylisoxazol-3-yl)-1H-pyrazole-4-carboxamide] | < 100 nM | < 100 nM
CCn1nc(-c2cc(C)on2)c(C(=O)NC2CCCN(CCC(C)(C)C)CC2)c1Cl (centres unmarked) [Example 160, 5-Chloro-N-(1-(3,3-dimethylbutyl)azepan-4-yl)-1-ethyl-3-(5-methylisoxazol-3-yl)-1H-pyrazole-4-carboxamide] | < 100 nM | < 100 nM
CCn1nc(-c2cccc(C(F)(F)F)n2)c(C(=O)NC2CCN(CCC(C)(C)C)CC2)c1Cl [Example 161, 5-Chloro-N-(1-(3,3-dimethylbutyl)piperidin-4-yl)-1-ethyl-3-(6-(trifluoromethyl)pyridin-2-yl)-1H-pyrazole-4-carboxamide] | < 100 nM | < 100 nM
CCn1nc(-c2cc(C(C)C)on2)c(C(=O)NC2CCN(CCC(C)(C)C)CC2)c1Cl [Example 162, 5-Chloro-N-(1-(3,3-dimethylbutyl)piperidin-4-yl)-1-ethyl-3-(5-isopropylisoxazol-3-yl)-1H-pyrazole-4-carboxamide] | < 100 nM | < 100 nM
CCn1nc(-c2ccon2)c(C(=O)NC2CCN(CCC(C)(C)C)CC2)c1Cl [Example 163, 5-Chloro-N-(1-(3,3-dimethylbutyl)piperidin-4-yl)-1-ethyl-3-(isoxazol-3-yl)-1H-pyrazole-4-carboxamide] | 100 to 500 nM | < 100 nM
CCn1nc(-c2cc(C)on2)c(C(=O)N[C@H]2CCN(CCC(C)(C)C)C2)c1Cl [Example 164, (S)-5-Chloro-N-(1-(3,3-dimethylbutyl)pyrrolidin-3-yl)-1-ethyl-3-(5-methylisoxazol-3-yl)-1H-pyrazole-4-carboxamide] | < 100 nM | 100 to 500 nM
CCn1nc(-c2cc(C)on2)c(C(=O)N[C@@H]2CCN(CCC(C)(C)C)C2)c1Cl [Example 165, (R)-5-Chloro-N-(1-(3,3-dimethylbutyl)pyrrolidin-3-yl)-1-ethyl-3-(5-methylisoxazol-3-yl)-1H-pyrazole-4-carboxamide] | < 100 nM | < 100 nM
Cc1cc(-c2nn(C)c(Cl)c2C(=O)NC2CCN(CCC(C)(C)C)CC2)no1 [Example 166, 5-Chloro-N-(1-(3,3-dimethylbutyl)piperidin-4-yl)-1-methyl-3-(5-methylisoxazol-3-yl)-1H-pyrazole-4-carboxamide] | 100 to 500 nM | < 100 nM
Cn1nc(-c2cccc(C(F)(F)F)n2)c(C(=O)NC2CCN(CCC(C)(C)C)CC2)c1Cl [Example 167, 5-Chloro-N-(1-(3,3-dimethylbutyl)piperidin-4-yl)-1-methyl-3-(6-(trifluoromethyl)pyridin-2-yl)-1H-pyrazole-4-carboxamide] | < 100 nM | < 100 nM
Cc1cccc(-c2nn(C)c(Cl)c2C(=O)NC2CCN(CCC(C)(C)C)CC2)n1 [Example 168, 5-Chloro-N-(1-(3,3-dimethylbutyl)piperidin-4-yl)-1-methyl-3-(6-methylpyridin-2-yl)-1H-pyrazole-4-carboxamide] | 100 to 500 nM | < 100 nM
Cc1cc(-c2nn(C)c(Cl)c2C(=O)N2CC[C@]3(C2)C[C@H](NCCC(C)(C)C)C3)no1 [Example 169, (5-Chloro-1-methyl-3-(5-methylisoxazol-3-yl)-1H-pyrazol-4-yl)((2s,4r)-2-((3,3-dimethylbutyl)amino)-6-azaspiro[3.4]octan-6-yl)methanone] | > 1000 nM | < 100 nM
Cc1cc(-c2nn(-c3ccncc3)c(Cl)c2C(=O)N2CCC3(CCN(CCC(C)(C)C)CC3)CC2)no1 [Example 170, (5-Chloro-3-(5-methylisoxazol-3-yl)-1-(pyridin-4-yl)-1H-pyrazol-4-yl)(9-(3,3-dimethylbutyl)-3,9-diazaspiro[5.5]undecan-3-yl)methanone] | 100 to 500 nM | < 100 nM
CCn1nc(-c2ccon2)c(C(=O)N2CCC3(CCN(CCC(C)(C)C)CC3)CC2)c1Cl [Example 171, (5-Chloro-1-ethyl-3-(isoxazol-3-yl)-1H-pyrazol-4-yl)(9-(3,3-dimethylbutyl)-3,9-diazaspiro[5.5]undecan-3-yl)methanone] | 100 to 500 nM | < 100 nM
Cc1cc(-c2nn(-c3ccccn3)c(Cl)c2C(=O)N2CCC3(CCN(CCC(C)(C)C)CC3)CC2)no1 [Example 172, (5-Chloro-3-(5-methylisoxazol-3-yl)-1-(pyridin-2-yl)-1H-pyrazol-4-yl)(9-(3,3-dimethylbutyl)-3,9-diazaspiro[5.5]undecan-3-yl)methanone] | 500 to 1000 nM | < 100 nM
Cn1nc(-c2ccccn2)c(C(=O)N2CCC3(CCN(CCC(C)(C)C)CC3)CC2)c1Cl [Example 173, (5-Chloro-1-methyl-3-(pyridin-2-yl)-1H-pyrazol-4-yl)(9-(3,3-dimethylbutyl)-3,9-diazaspiro[5.5]undecan-3-yl)methanone] | 500 to 1000 nM | < 100 nM
Cc1cc(-c2nn(C)c(Cl)c2C(=O)N2CCC3(CC2)CC(NCCC(C)(C)C)C3)no1 [Example 174, (5-Chloro-1-methyl-3-(5-methylisoxazol-3-yl)-1H-pyrazol-4-yl)(2-((3,3-dimethylbutyl)amino)-7-azaspiro[3.5]nonan-7-yl)methanone] | 500 to 1000 nM | < 100 nM
Cc1cc(-c2nn(C)c(Cl)c2C(=O)N2CCC3(CCN(Cc4ccccc4)CC3)CC2)no1 [Example 175, (9-Benzyl-3,9-diazaspiro[5.5]undecan-3-yl)(5-chloro-1-methyl-3-(5-methylisoxazol-3-yl)-1H-pyrazol-4-yl)methanone] | 500 to 1000 nM | < 100 nM
CCc1nc(C)c(-c2nn(C)c(Cl)c2C(=O)N2CCC3(CCN(CCC(C)(C)C)CC3)CC2)o1 [Example 176, (5-Chloro-3-(2-ethyl-4-methyloxazol-5-yl)-1-methyl-1H-pyrazol-4-yl)(9-(3,3-dimethylbutyl)-3,9-diazaspiro[5.5]undecan-3-yl)methanone] | > 1000 nM | < 100 nM
CC(C)c1cc(-c2nn(C)c(Cl)c2C(=O)N2CCC3(CCN(CCC(C)(C)C)CC3)CC2)no1 [Example 177, (5-Chloro-3-(5-isopropylisoxazol-3-yl)-1-methyl-1H-pyrazol-4-yl)(9-(3,3-dimethylbutyl)-3,9-diazaspiro[5.5]undecan-3-yl)methanone] | 100 to 500 nM | < 100 nM
